According to ChEMBL document CHEMBL4145665, “Structure-Activity Relationship of Novel and Selective Biaryl-Chroman GPR40 AgoPAMs” (ACS Med Chem Lett, 2018):
pEC50: −log10 of the molar value.

These compounds were tested against T1, Free fatty acid receptor 1 (Homo sapiens, UniProt O14842) (assay: Agonist activity at recombinant human GPR40 expressed in HEK293 cells assessed as increase in IP1 accumulation measured after 60 mins by HTRF assay relative to AM-1638). Conditions: not given.
Type: functional, cell-based

T1 sequence (O14842 whole entry): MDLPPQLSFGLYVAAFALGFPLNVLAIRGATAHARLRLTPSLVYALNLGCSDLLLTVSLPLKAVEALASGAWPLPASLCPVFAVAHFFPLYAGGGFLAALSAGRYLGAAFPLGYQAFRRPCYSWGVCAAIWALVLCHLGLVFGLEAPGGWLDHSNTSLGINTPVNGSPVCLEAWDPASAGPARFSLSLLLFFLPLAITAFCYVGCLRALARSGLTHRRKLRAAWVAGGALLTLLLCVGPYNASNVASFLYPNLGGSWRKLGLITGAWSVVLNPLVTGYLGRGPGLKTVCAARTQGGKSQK

Row | Structure (SMILES) | max activation [%]
1 | O=C(O)C[C@H](c1ccc2c(c1)OC(c1ccc(-c3ccccc3)cc1)CC2)C1CC1 (single isomer, unassigned) | 452
2 | COc1cc(-c2ccc(C3CCc4ccc([C@H](C5CC5)[C@H](C)C(=O)O)cc4O3)nc2)ccn1 (stereo in doubt; 33) | > 179
3 | COc1cc(-c2ccc(C3CCc4ccc([C@H](C5CC5)[C@H](C)C(=O)O)cc4O3)cc2)ccn1 (stereo in doubt; 22) | > 179
4 | COc1cc(-c2ccc(C3CCc4ccc([C@H](C5CC5)[C@H](C)C(=O)O)cc4O3)nc2)ccn1 (stereo in doubt; 32) | > 179
5 | COc1cc(-c2cnc(C3CCc4ccc([C@H](C5CC5)[C@H](C)C(=O)O)cc4O3)c(F)c2)c(F)cn1 (stereo in doubt; 30) | > 179
6 | O=C(O)C[C@H](c1ccc2c(c1)OC(c1ccc(-c3cccc(O)c3)cc1)CC2)C1CC1 (mixture of isomers) | 422
7 | COc1cc(-c2ccc(C3CCc4ccc([C@H](C5CC5)[C@H](C)C(=O)O)cc4O3)c(F)c2)c(F)cn1 (stereo in doubt; 26) | > 179
8 | CSc1cccc(-c2ccc(C3CCc4ccc([C@@H](CC(=O)O)C5CC5)cc4O3)cc2)c1 (mixture of isomers) | 500
9 | COc1ccc(F)c(-c2ccc(C3CCc4ccc([C@H](C5CC5)[C@H](C)C(=O)O)cc4O3)cc2)c1 (stereo in doubt; 15) | > 179
10 | COc1cc(-c2cnc(C3CCc4ccc([C@H](C5CC5)[C@H](C)C(=O)O)cc4O3)c(F)c2)c(F)cn1 (stereo in doubt; 31) | > 179
11 | COc1cc(-c2ccc(C3CCc4ccc([C@H](C5CC5)[C@H](C)C(=O)O)cc4O3)c(F)c2)c(F)cn1 (stereo in doubt; 27) | > 179

Results, then the compound that gave them:

Row | max activation [%] | Structure (SMILES)
12 | 460 | COc1cc(-c2ccc(C3CCc4ccc([C@@H](CC(=O)O)C5CC5)cc4O3)cc2)c(F)cn1 (stereo partly drawn)
13 | > 179 | COc1cc(-c2ccc(C3CCc4ccc([C@H](C5CC5)[C@H](C)C(=O)O)cc4O3)c(F)c2)ccn1 (mixture of isomers)
14 | 401 | COc1cc(-c2ccc(C3CCc4ccc([C@@H](CC(=O)O)C5CC5)cc4O3)cc2)ccn1 (mixture of isomers)
15 | > 179 | COc1cc(-c2ccc(C3CCc4ccc([C@H](C5CC5)[C@H](C)C(=O)O)cc4O3)nc2)c(F)cn1 (stereo in doubt; 28)
16 | > 179 | COc1cc(-c2ccc(C3CCc4ccc([C@H](C5CC5)[C@H](C)C(=O)O)cc4O3)cc2)c(F)cn1 (stereo in doubt; 21)
17 | 394 | COc1cccc(-c2ccc(C3CCc4ccc([C@@H](CC(=O)O)C5CC5)cc4O3)cc2)c1 (single isomer, unassigned)
18 | > 179 | COc1ccc(F)c(-c2ccc(C3CCc4ccc([C@H](C5CC5)[C@H](C)C(=O)O)cc4O3)cn2)c1 (stereo in doubt; 19)
19 | > 179 | COc1ccc(F)c(-c2ccc(C3CCc4ccc([C@H](C5CC5)[C@H](C)C(=O)O)cc4O3)nc2)c1 (stereo in doubt; 16)
20 | 359 | COc1ccc(F)c(-c2ccc(C3CCc4ccc([C@@H](CC(=O)O)C5CC5)cc4O3)cc2)c1 (mixture of isomers)
21 | > 179 | COc1cc(-c2ccc(C3CCc4ccc([C@H](C5CC5)[C@H](C)C(=O)O)cc4O3)cc2)c(F)cn1 (stereo in doubt; 20)

The compounds below were run against Free fatty acid receptor 1 (Rattus norvegicus) (UniProt Q8K3T4) (assay: Agonist activity at recombinant rat GPR40 expressed in CHOK1 cells assessed as increase in IP1 accumulation measured after 60 mins by HTRF assay relative to AM-1638). Conditions: not given.
Type: functional, cell-based

Sequence of Free fatty acid receptor 1 (Rattus norvegicus) (Q8K3T4 whole entry): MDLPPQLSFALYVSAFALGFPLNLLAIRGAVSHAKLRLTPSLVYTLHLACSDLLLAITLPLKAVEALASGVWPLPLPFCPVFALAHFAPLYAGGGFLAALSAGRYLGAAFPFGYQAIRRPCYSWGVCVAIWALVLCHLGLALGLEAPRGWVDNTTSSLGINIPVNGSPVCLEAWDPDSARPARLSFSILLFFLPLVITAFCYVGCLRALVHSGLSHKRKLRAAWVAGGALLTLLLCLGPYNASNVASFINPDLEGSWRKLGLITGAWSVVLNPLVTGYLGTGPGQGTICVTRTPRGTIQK

Row | max activation [%] | Structure (SMILES)
22 | > 370 | COc1ccc(F)c(-c2ccc(C3CCc4ccc([C@H](C5CC5)[C@H](C)C(=O)O)cc4O3)nc2)c1 (stereo in doubt; 16)

The compounds below were run on Rattus norvegicus (assay: Antidiabetic activity in Sprague-Dawley rat assessed as inhibition of blood glucose AUC at 3 mg/kg, po treated prior to dextrose challenge and measured after 20 to 60 mins by IPGTT relative to control). Conditions: Rattus norvegicus, Sprague-Dawley, po.
Type: functional

Row | Structure (SMILES) | inhibition in vivo at 3 mg/kg [%]
23 | COc1cc(-c2ccc(C3CCc4ccc([C@H](C5CC5)[C@H](C)C(=O)O)cc4O3)c(F)c2)ccn1 (mixture of isomers) | 84

Each compound was assayed against T1, Free fatty acid receptor 1 (assay: Agonist activity at recombinant human GPR40 expressed in HEK293 cells assessed as increase in IP1 accumulation measured after 60 mins by HTRF assay). Conditions: not given.
Type: functional, cell-based

Row | Structure (SMILES) | pEC50
24 | O=C(O)C[C@H](c1ccc2c(c1)OC(c1ccc(-c3ccccc3)cc1)CC2)C1CC1 (single isomer, unassigned) | 6.88
25 | O=C(O)C[C@H](c1ccc2c(c1)OC(c1ccc(-c3cccc(O)c3)cc1)CC2)C1CC1 (mixture of isomers) | 6.41

Other lines, results leading:

Row | pEC50 | Structure (SMILES)
26 | 8.09 | COc1cc(-c2ccc(C3CCc4ccc([C@H](C5CC5)[C@H](C)C(=O)O)cc4O3)c(F)c2)ccn1 (mixture of isomers)
27 | 7.64 | COc1cccc(-c2ccc(C3CCc4ccc([C@@H](CC(=O)O)C5CC5)cc4O3)cc2)c1 (single isomer, unassigned)
28 | 8.15 | COc1ccc(F)c(-c2ccc(C3CCc4ccc([C@@H](CC(=O)O)C5CC5)cc4O3)cc2)c1 (mixture of isomers)

Each compound was assayed on Rattus norvegicus (assay: Antidiabetic activity in po dosed Goto Kakizaki rats assessed as plasma concentration required for reduction in blood glucose excursion at MED pretreated for 1 hr followed by dextrose challenge measured 3 hrs post dose by OGTT). Conditions: not given.
Type: functional, organism-based

Row | Structure (SMILES) | Cp [µM]
29 | COc1ccc(F)c(-c2ccc(C3CCc4ccc([C@H](C5CC5)[C@H](C)C(=O)O)cc4O3)nc2)c1 (stereo in doubt; 16) | 13.9

Each compound was assayed against T1, Free fatty acid receptor 1 (assay: Agonist activity at recombinant human GPR40 expressed in HEK293 cells assessed as increase in IP1 accumulation measured after 60 mins in presence of 100% human serum by HTRF assay relative to AM-1638). Conditions: not given.
Type: functional, cell-based

Row | Structure (SMILES) | max activation [%]
30 | O=C(O)C[C@H](c1ccc2c(c1)OC(c1ccc(-c3ccccc3)cc1)CC2)C1CC1 (single isomer, unassigned) | 57
31 | COc1cc(-c2ccc(C3CCc4ccc([C@H](C5CC5)[C@H](C)C(=O)O)cc4O3)nc2)ccn1 (stereo in doubt; 33) | > 179
32 | COc1cc(-c2ccc(C3CCc4ccc([C@H](C5CC5)[C@H](C)C(=O)O)cc4O3)cc2)ccn1 (stereo in doubt; 22) | > 179
33 | COc1cc(-c2ccc(C3CCc4ccc([C@H](C5CC5)[C@H](C)C(=O)O)cc4O3)nc2)ccn1 (stereo in doubt; 32) | > 179
34 | COc1cc(-c2cnc(C3CCc4ccc([C@H](C5CC5)[C@H](C)C(=O)O)cc4O3)c(F)c2)c(F)cn1 (stereo in doubt; 30) | > 179
35 | O=C(O)C[C@H](c1ccc2c(c1)OC(c1ccc(-c3cccc(O)c3)cc1)CC2)C1CC1 (mixture of isomers) | 231
36 | COc1cc(-c2ccc(C3CCc4ccc([C@H](C5CC5)[C@H](C)C(=O)O)cc4O3)c(F)c2)c(F)cn1 (stereo in doubt; 26) | > 179
37 | CSc1cccc(-c2ccc(C3CCc4ccc([C@@H](CC(=O)O)C5CC5)cc4O3)cc2)c1 (mixture of isomers) | 144
38 | COc1ccc(F)c(-c2ccc(C3CCc4ccc([C@H](C5CC5)[C@H](C)C(=O)O)cc4O3)cc2)c1 (stereo in doubt; 15) | > 179
39 | COc1cc(-c2cnc(C3CCc4ccc([C@H](C5CC5)[C@H](C)C(=O)O)cc4O3)c(F)c2)c(F)cn1 (stereo in doubt; 31) | > 179
40 | COc1cc(-c2ccc(C3CCc4ccc([C@H](C5CC5)[C@H](C)C(=O)O)cc4O3)c(F)c2)c(F)cn1 (stereo in doubt; 27) | > 179

Now from value to compound:

Row | max activation [%] | Structure (SMILES)
41 | 224 | COc1cc(-c2ccc(C3CCc4ccc([C@@H](CC(=O)O)C5CC5)cc4O3)cc2)c(F)cn1 (stereo partly drawn)
42 | > 179 | COc1cc(-c2ccc(C3CCc4ccc([C@H](C5CC5)[C@H](C)C(=O)O)cc4O3)c(F)c2)ccn1 (mixture of isomers)
43 | 229 | COc1cc(-c2ccc(C3CCc4ccc([C@@H](CC(=O)O)C5CC5)cc4O3)cc2)ccn1 (mixture of isomers)
44 | > 179 | COc1cc(-c2ccc(C3CCc4ccc([C@H](C5CC5)[C@H](C)C(=O)O)cc4O3)nc2)c(F)cn1 (stereo in doubt; 28)
45 | > 179 | COc1cc(-c2ccc(C3CCc4ccc([C@H](C5CC5)[C@H](C)C(=O)O)cc4O3)cc2)c(F)cn1 (stereo in doubt; 21)
46 | 223 | COc1cccc(-c2ccc(C3CCc4ccc([C@@H](CC(=O)O)C5CC5)cc4O3)cc2)c1 (single isomer, unassigned)
47 | > 179 | COc1ccc(F)c(-c2ccc(C3CCc4ccc([C@H](C5CC5)[C@H](C)C(=O)O)cc4O3)cn2)c1 (stereo in doubt; 19)
48 | > 179 | COc1ccc(F)c(-c2ccc(C3CCc4ccc([C@H](C5CC5)[C@H](C)C(=O)O)cc4O3)nc2)c1 (stereo in doubt; 16)
49 | 188 | COc1ccc(F)c(-c2ccc(C3CCc4ccc([C@@H](CC(=O)O)C5CC5)cc4O3)cc2)c1 (mixture of isomers)
50 | > 179 | COc1cc(-c2ccc(C3CCc4ccc([C@H](C5CC5)[C@H](C)C(=O)O)cc4O3)cc2)c(F)cn1 (stereo in doubt; 20)

The compounds below were run against T1, Free fatty acid receptor 1 (assay: Agonist activity at recombinant human GPR40 expressed in HEK293 cells assessed as increase in IP1 accumulation measured after 60 mins in presence of 100% human serum by HTRF assay). Conditions: not given.
Type: functional, cell-based

Row | Structure (SMILES) | pEC50
51 | O=C(O)C[C@H](c1ccc2c(c1)OC(c1ccc(-c3ccccc3)cc1)CC2)C1CC1 (single isomer, unassigned) | 5.26
52 | O=C(O)C[C@H](c1ccc2c(c1)OC(c1ccc(-c3cccc(O)c3)cc1)CC2)C1CC1 (mixture of isomers) | 5.34
53 | CSc1cccc(-c2ccc(C3CCc4ccc([C@@H](CC(=O)O)C5CC5)cc4O3)cc2)c1 (mixture of isomers) | 5.29

Continued, values first:

Row | pEC50 | Structure (SMILES)
54 | 5.92 | COc1cc(-c2ccc(C3CCc4ccc([C@@H](CC(=O)O)C5CC5)cc4O3)cc2)c(F)cn1 (stereo partly drawn)
55 | 6.04 | COc1cc(-c2ccc(C3CCc4ccc([C@H](C5CC5)[C@H](C)C(=O)O)cc4O3)c(F)c2)ccn1 (mixture of isomers)
56 | 5.59 | COc1cc(-c2ccc(C3CCc4ccc([C@@H](CC(=O)O)C5CC5)cc4O3)cc2)ccn1 (mixture of isomers)
57 | 5.39 | COc1cccc(-c2ccc(C3CCc4ccc([C@@H](CC(=O)O)C5CC5)cc4O3)cc2)c1 (single isomer, unassigned)
58 | 5.91 | COc1ccc(F)c(-c2ccc(C3CCc4ccc([C@@H](CC(=O)O)C5CC5)cc4O3)cc2)c1 (mixture of isomers)
